Test system: patients with moderate-to-severe AD
Experiment: MD-01: 24-week trial of memantine as monotherapy
Format: in vivo, human
Conditions: MD-01, week 24, ITT LOCF
Protocol: MD-01: MD-01 was a trial evaluating memantine as monotherapy for the treatment of patients with moderate-to-severe AD lasting for 24 weeks. About 350 patients were enrolled. Efficacy was evaluated using the Severe Impairment Battery (SIB), the Assessment of Daily Living (ADL) and the CIBIC-plus Scales.
The five memantine trials were evaluated using an analysis of patient for a population having an NPI agitation subscale score of >4 ([…]) and for a population having an NPI score of <4 ([…]). For each NPI population, changes in SIB, ADAS-cog and/or ADL were calculated using the least square (LS) mean difference for memantine and placebo-treated patients. Similarly, for each NPI population, the raw mean difference between memantine and placebo was calculated for the CIBIC-plus results.
For primary efficacy measurements the comparison between memantine and placebo was performed using two-way analysis of covariance (ANCOVA) with treatment group and center as the two factors, and the baseline scores as covariate. Both the LOCF imputation approach and the OC approach are performed at the end of the trials.
For secondary efficacy measurements, the comparison between memantine and placebo was performed using two-way analysis of covariance (ANCOVA) with treatment group and center as the two main effects, and the baseline scores as covariate. Descriptive statistics were calculated by Visit. Again, all analyses were performed using both the LOCF imputation approach and the OC approach.
Results of ANCOVA were summarized using least square (LS) means for each treatment group with corresponding standard error (SE), the between-treatment (2-24 week) difference in the least square means with corresponding 95% confidence interval, and the between-treatment p-value corresponds to the SAS Type III sum of squares.
In data Tables 5-19, the Overall Memantine versus Placebo columns of studies MD-01, MD-02, MD-10 and MD-12 used an ANCOVA model with baseline total score as covariate, treatment and study center as factors for SIB, ADL or ADAS-cog; CMH test controlling for study center for CIBIC-Plus. For MZ-9605, results are based on arithmetic means and the Wilcoxon-Mann-Whitney test. The Agitation score columns/NPI/antipsychotics columns, except CIBIS-Plus, calculated the p-values and LS mean differences within the subgroups from an ANCOVA model with baseline total score as covariate, subgroup (yes/no), treatment, and treatment by subgroup interactions as factors. For CIBIS-Plus, the p-values and raw mean differences within a subgroup were calculated using the CMH test controlling for study center.
Patients in the same five trials described above were stratified into two sub-groups in a second analysis, those with an NPI total score in the top quartile (≧75%), or those more severely impaired at baseline, and those with an NPI total score <75%, or less severe impairment at baseline. Similar to as in Example 1, results were evaluated using the change in SIB (cognitive endpoint), and change in ADCS-ADL (functional endpoint), using the LS mean. The change in the CIBIC-plus (global endpoint) was assessed using the raw mean.
A sub-population of patients from the five trials, MD-01, MD-02, MD-10, MD-12, and MZ-9605, were concurrently taking antipsychotics.

[1] = NPI total score ≧=75% (top quartile)
[2] = antipsychotics usage “YES” (N = n)
[3] = antipsychotics usage “YES” (N = y)
[4] = baseline NPI agitation score <4
[5] = baseline NPI agitation score ≧=4
[6] = baseline NPI agitation score ≧=4, listed as MEM

CC12CC3CC(C)(C1)CC(N)(C3)C2 [memantine, 1-amino-3,5-dimethyl adamantane]
ADCS-ADL (change) LS Mean Diff., MEM v. PLA (NPI total score <75%): 0.87
ADCS-ADL (change) mean (NPI total score <75%): −1.1
CIBIC-PLUS Raw Mean Diff., MEM v. PLA (NPI total score <75%): −0.2
CIBIC-PLUS mean (NPI total score <75%): 4.3
SIB (change) LS Mean Diff., MEM v. PLA (NPI total score <75%): 0.3
SIB (change) mean (NPI total score <75%): −1.2
ADCS-ADL (change) LS Mean Diff., MEM v. PLA [1]: −0.05
ADCS-ADL (change) mean [1]: −2.3
CIBIC-PLUS Raw Mean Diff., MEM v. PLA [1]: −0.2
CIBIC-PLUS mean [1]: 4.5
SIB (change) LS Mean Diff., MEM v. PLA [1]: 3.5
SIB (change) mean [1]: −2.8
ADCS-ADL (change) LS Mean Diff., MEM v. PLA [2]: 0.8
ADCS-ADL (change) mean [2]: −0.8
CIBIC-PLUS Raw Mean Diff., MEM v. PLA [2]: −0.26
CIBIC-PLUS mean [2]: 4.26
SIB (change) LS Mean Diff., MEM v. PLA [2]: 1.7
SIB (change) mean [2]: −0.5
ADCS-ADL (change) LS Mean Diff., MEM v. PLA [3]: −0.15
ADCS-ADL (change) mean [3]: −3.8
CIBIC-PLUS Raw Mean Diff., MEM v. PLA [3]: −0.1
CIBIC-PLUS mean [3]: 4.63
SIB (change) LS Mean Diff., MEM v. PLA [3]: −1.9
SIB (change) mean [3]: −6.2
ADCS-ADL (change) LS Mean Diff., MEM v. PLA [4]: 0.36
ADCS-ADL (change) mean [4]: −1.3
CIBIC-PLUS Raw Mean Diff., MEM v. PLA [4]: −0.2
CIBIC-PLUS mean [4]: 4.3
SIB (change) LS Mean Diff., MEM v. PLA [4]: −0.15
SIB (change) mean [4]: −1.9
ADCS-ADL (change) LS Mean Diff., MEM v. PLA [5]: 1.18
ADCS-ADL (change) mean [5]: −3.2
CIBIC-PLUS Raw Mean Diff., MEM v. PLA [5]: 0
CIBIC-PLUS mean [5]: 4.7
SIB (change) LS Mean Diff., MEM v. PLA [5]: 4.65
SIB (change) mean [5]: −1.0
ADCS-ADL (change) mean [6]: −2.2
CIBIC-PLUS Raw Mean Diff., MEM v. PLA [6]: 0.0
ADCS-ADL (change) LS Mean Diff., MEM v. PLA (overall): 0.70
ADCS-ADL (change) LS mean (overall): −2.00
CIBIC-PLUS LS mean (overall): 4.30
CIBIC-PLUS Raw Mean Diff., MEM v. PLA (overall): −0.30
SIB (change) LS Mean Diff., MEM v. PLA (overall): 0.60
SIB (change) LS mean (overall): −2.00
